Assay results: patent US20160137639A1, “TRIAZOLE-ISOXAZOLE COMPOUND AND MEDICAL USE THEREOF” (JAPAN TOBACCO INC., priority 2012, published 2016)
Read-outs that look alike come from different tables or passages of the source.

Tests used:
[1] = molecular target: T1, mouse RORγ (Mus musculus, UniProt P51450); test: Luciferase reporter gene assay of inhibitory effect against RORγ transcriptional activity (GAL4-mRORγ plasmid in CHO cells); assay type: cell-based
T1 construct: mouse, NM_011281.2 and from Ile251 to Lys516; expressed in transfected cells; host or cells: CHO cells (transient co-transfection with pG5-Luc reporter)
T1 sequence (P51450 251-516): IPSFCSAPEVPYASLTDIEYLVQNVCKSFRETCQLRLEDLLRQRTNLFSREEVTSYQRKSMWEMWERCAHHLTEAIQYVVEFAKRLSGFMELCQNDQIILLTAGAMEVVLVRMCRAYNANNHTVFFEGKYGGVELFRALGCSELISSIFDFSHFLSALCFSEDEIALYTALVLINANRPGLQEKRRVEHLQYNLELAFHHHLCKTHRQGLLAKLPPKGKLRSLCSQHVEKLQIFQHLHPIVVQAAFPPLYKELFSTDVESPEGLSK
In short: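 Readout is intracellular luciferase after 2-day compound exposure (8 concentrations, 0.1% DMSO) in CHO cells expressing GAL4 fused to mouse RORγ LBD residues Ile251–Lys516 plus pG5-Luc reporter. EC50 fitted from %-of-control; points showing resazurin-detected cytotoxicity dropped.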

[2] = molecular target: T2, human RORγ (Homo sapiens, UniProt P51449); test: Luciferase reporter gene assay of inhibitory effect against RORγ transcriptional activity (GAL4-hRORγ plasmid in CHO cells); assay type: cell-based
T2 construct: human, NM_005060.3 and from Ser253 to Lys518; expressed in transfected cells; host or cells: CHO cells (transient co-transfection with pG5-Luc reporter)
T2 sequence (P51449 253-518): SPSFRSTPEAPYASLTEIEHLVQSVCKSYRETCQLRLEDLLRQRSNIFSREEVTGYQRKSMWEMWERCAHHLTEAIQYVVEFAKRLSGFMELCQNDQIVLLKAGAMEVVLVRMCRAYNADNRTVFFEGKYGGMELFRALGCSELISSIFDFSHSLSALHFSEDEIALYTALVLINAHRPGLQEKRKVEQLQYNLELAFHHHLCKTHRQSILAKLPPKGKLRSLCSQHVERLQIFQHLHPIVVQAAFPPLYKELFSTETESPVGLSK

SMILES | EC50 ([1]; read-out: LUC EC50 (μM) mRORg) | EC50 ([2]; read-out: LUC EC50 (μM) hRORg) | EC50 ([1]; read-out: LUC EC50 mRORg) | EC50 ([2]; read-out: LUC EC50 hRORg)
Cc1ccc(NC(=O)C[C@H](CCC(=O)O)c2noc(-c3cc(C(F)(F)C4CC4)on3)c2C2CC2)c(Cl)c1 [Example E-73] | < 3 µM | < 3 µM | – | –
Cc1ccc(NC(=O)C[C@H](CC(F)(F)F)c2nnc([C@H]3C[C@@H](CC(C)C)C3)n2C2CC2)c(C)c1 [Example F-568] | – | – | < 3 µM | < 3 µM
Cc1cc(F)ccc1NC(=O)C[C@H](CCO)c1nnc([C@H]2C[C@@H](CC(F)(F)F)C2)n1C1CC1 [Example F-588] | – | – | < 3 µM | > 3 µM
CC(C)(C)C(F)(F)c1cc(-c2onc([C@H](CCC(=O)O)CC(=O)Nc3ccc(Cl)cc3F)c2C2CC2)no1 [Example E-80] | – | – | < 3 µM | < 3 µM
CC(=O)N1C[C@H](C(=O)Nc2ccc(C)cc2C)[C@@H](c2nnc(-c3ccc(C(C)C)cc3)n2C2CC2)C1 [Example F-411] | < 3 µM | < 3 µM | – | –
Cc1ccc(NC(=O)CC(CN)c2nnc(CCCC(C)C)n2C2CC2)c(C)c1 (racemic) [Example F-274] | > 3 µM | > 3 µM | – | –
CCn1c(C2Cc3ccccc3C2)nnc1[C@@H]1C[C@@H]1C(=O)Nc1cccc2ccccc12 (racemic) [Example F-27] | < 3 µM | > 3 µM | – | –
Cc1ccc(NC(=O)[C@H]2CCCN[C@@H]2c2nnc(CCCC(C)(C)C)n2C2CC2)c(C)c1 [Example F-309] | < 3 µM | < 3 µM | – | –
COc1cc(C)ccc1CNC(=O)[C@H]1CN(C(C)=O)C[C@@H]1c1nnc(CCC2CCCCC2)n1C1CC1 (racemic) [Example F-173] | < 3 µM | < 3 µM | – | –
Cc1ccc(NC(=O)CCc2nnc([C@H]3C[C@@H](CC(C)(C)C)C3)n2C2CC2)c(C)c1 [Example F-426] | < 3 µM | < 3 µM | – | –
CCn1c(CCC(=O)Nc2cccc3ccccc23)nnc1CCc1ccccc1 [Example F-12] | < 3 µM | < 3 µM | – | –
Cc1cc(C)cc(NC(=O)CCc2nnc(CCC(C)C)n2C2CC2)c1 [Example F-76] | > 3 µM | > 3 µM | – | –
Cc1c(Cl)cccc1NC(=O)CCc1nnc(CCC(C)(C)C(=O)N(C)C)n1C1CC1 [Example F-239] | > 3 µM | > 3 µM | – | –
Cc1c(Cl)cccc1NC(=O)CC(CCCO)c1nnc(CCC(C)C)n1C1CC1 (racemic) [Example F-196] | < 3 µM | < 3 µM | – | –
CC(=O)N1CCCC(CCc2nnc(CCC(=O)Nc3cccc(Cl)c3C)n2C2CC2)C1 (racemic) [Example F-190] | > 3 µM | > 3 µM | – | –
CC(=O)N1C[C@H](C(=O)Nc2ccc(C)cc2C)[C@@H](c2nnc(-c3cnn(C(C)C)c3)n2C2CC2)C1 (racemic) [Example F-368] | > 3 µM | > 3 µM | – | –
CC(=O)N1C[C@H](C(=O)Nc2ccc(C)cc2C)[C@@H](c2nnc(CCCC(C)C)n2C2CC2)C1 (racemic) [Example F-220] | < 3 µM | < 3 µM | – | –
Cc1c(Cl)cccc1NC(=O)CCc1nnc(CCOC(C)(C)C(F)(F)F)n1C1CC1 [Example F-304] | < 3 µM | < 3 µM | – | –
COc1cc(C)ccc1CNC(=O)C[C@H](CCO)c1nnc([C@H]2C[C@@H](CC(C)C)C2)n1C1CC1 [Example F-535] | – | – | < 3 µM | < 3 µM
CCc1ccc(CNC(=O)CCc2nnc(CCC(C)C)n2C2CC2)cc1 [Example F-124] | > 3 µM | > 3 µM | – | –
Cc1noc(NC(=O)C[C@H](CCC(=O)O)c2noc([C@H]3C[C@@H](CC(C)(C)C)C3)c2C2CC2)c1C [Example F-679] | – | – | < 3 µM | < 3 µM

SMILES | EC50 ([1]; read-out: LUC EC50 (μM) mRORg) | EC50 ([2]; read-out: LUC EC50 (μM) hRORg) | EC50 ([1]; read-out: LUC EC50 mRORg) | EC50 ([2]; read-out: LUC EC50 hRORg)
CCn1c(CCC(=O)Nc2cccc3ccccc23)nnc1CCC(C)C [Example F-19] | < 3 µM | > 3 µM | – | –
CC(=O)N(CCc1nnc(CCC(=O)Nc2cccc(Cl)c2C)n1C1CC1)C(C)C [Example F-233] | > 3 µM | > 3 µM | – | –
COc1cc(C)ccc1CNC(=O)[C@H]1CCN(C(C)=O)[C@@H]1c1nnc(CCC2CCCCC2)n1C1CC1 [Example F-228] | < 3 µM | < 3 µM | – | –
Cc1ccc(NC(=O)C[C@H](CCC(=O)O)c2noc(-c3ncc(CC(C)C)o3)c2C2CC2)c(Cl)c1 [Example E-18] | < 3 µM | < 3 µM | – | –
Cc1ccc(NC(=O)CCc2noc(C34CC5CC(CC(C5)C3)C4)c2C2CC2)c(Cl)c1 [Example F-734] | – | – | < 3 µM | < 3 µM
Cc1ccc(NC(=O)CCc2nnc(C3(O)CC(CC(C)C)C3)n2C2CC2)c(C)c1 (single isomer, unassigned) [Example F-430] | < 3 µM | < 3 µM | – | –
CCOC(=O)CCc1c(CCC(=O)Nc2ccc(C)cc2C)noc1[C@H]1C[C@@H](CC(C)C)C1 [Example F-663] | – | – | > 3 µM | > 3 µM
Cc1ccc(NC(=O)C[C@H](CCC(=O)O)c2noc(-c3cc(C4C(C)(C)C4(C)C)on3)c2C2CC2)c(Cl)c1 [Example E-44] | < 3 µM | < 3 µM | – | –
O=C(O)CC[C@@H](CC(=O)Nc1ccc(Cl)cc1F)c1noc(-c2cc(C3CCCC3)on2)c1C1CC1 [Example E-59] | < 3 µM | < 3 µM | – | –
Cc1ccc(NC(=O)C[C@H](CCC(=O)O)c2noc(-c3cnc(CC(C)C)s3)c2C2CC2)c(Cl)c1 [Example E-41, Sodium (S)-5-(2-chloro-4-methyl-phenylcarbamoyl)-4-[4-cyclopropyl-5-(2-isobutyl-thiazol-5-yl)-isoxazol-3-yl]-pentanoate] | < 3 µM | < 3 µM | – | –
Cc1ccc(NC(=O)CCc2nnn(CCC3CCCCC3)c2C2CC2)c(C)c1 [Example F-443] | < 3 µM | < 3 µM | – | –
Cc1ccc(NC(=O)CC(c2nnc([C@H]3C[C@@H](CC(C)C)C3)n2C2CC2)C(F)(F)CO)c(C)c1 (mixture of isomers) [Example F-617] | – | – | < 3 µM | < 3 µM
C=CCC(CC(=O)Nc1ccc(C)cc1C)c1nnc(CCCC(C)(C)C)n1C1CC1 (racemic) [Example F-306] | < 3 µM | < 3 µM | – | –
Cc1ccc(NC(=O)[C@H]2CCCN(C)[C@@H]2c2nnc(CCCC(C)(C)C)n2C2CC2)c(C)c1 [Example F-310] | < 3 µM | < 3 µM | – | –
Cc1c(Cl)cccc1NC(=O)CCc1nnc(CCNC(C)C)n1C1CC1 [Example F-171] | > 3 µM | > 3 µM | – | –
CC(C)(C)C[C@H]1C[C@@H](c2onc([C@@H](CCC(=O)O)CC(=O)NC3CCC3)c2C2CC2)C1 [Example F-711] | – | – | > 3 µM | > 3 µM
CNC(=O)CCC(CC(=O)Nc1ccc(C)cc1C)c1nnc(CCCC(C)C)n1C1CC1 (racemic) [Example F-285] | < 3 µM | > 3 µM | – | –
CCn1c(CCC(=O)Nc2cc(C)cc(C)c2)nnc1CCC1CCCCC1 [Example F-38] | > 3 µM | < 3 µM | – | –
CC(=O)N1C[C@H](C(=O)Nc2ccc(C)cc2C)[C@@H](c2nnc(C3CC3CC(C)C)n2C2CC2)C1 (mixture of isomers) [Example F-340] | < 3 µM | > 3 µM | – | –
Cc1ccc(NC(=O)C[C@H](CCC(=O)O)c2nnn([C@H]3C[C@@H](CC(C)(C)C(C)C)C3)c2C2CC2)c(F)c1 [Example F-706] | – | – | < 3 µM | < 3 µM
C=CC[C@@H](CC(=O)Nc1ccc(C)cc1C)c1nnc(CCCC(C)(C)C)n1C1CC1 [Example F-389] | < 3 µM | < 3 µM | – | –
